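Grown in 96-well plates, cells were treated for 48 hours with each compound at five concentrations. Insufficient inhibition: endpoint recorded as highest concentration tested. At the GI50, growth is halved.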 The source made the active and inactive calls. Rule as the data show it: active = GI50 up to about 1.1 µM and inactive = higher.
Key:
Assay in all cases: DTP human tumour cell line panel, 48 h
[1] = system: SF-268
[2] = system: TK-10
[3] = system: CAKI-1
[4] = system: OVCAR-4
[5] = system: SK-OV-3
[6] = system: HT-29
[7] = system: DLD-1
[8] = system: HL-60
[9] = system: HCT-116
[10] = system: DMS-273
[11] = system: OVCAR-5
[12] = system: K562
[13] = system: MOLT-4
[14] = system: CCRF-CEM
[15] = system: A549
[16] = system: A498
[17] = system: OVCAR-8
[18] = system: SNB-75
[19] = system: NCI-H23
[20] = system: 786-0
[21] = system: RXF 393
[22] = system: NCI-H522
[23] = system: SW-620
[24] = system: COLO 205
[25] = system: ACHN
[26] = system: SNB-19
[27] = system: NCI-H460
[28] = system: IGROV-1
[29] = system: HOP-92
[30] = system: UACC-62
[31] = system: RPMI-8226
[32] = system: SK-MEL-5
[33] = system: OVCAR-3
[34] = system: LOX IMVI
[35] = system: SF-295
[36] = system: SK-MEL-2
[37] = system: UACC-257
[38] = system: KM-20L2
[39] = system: HCC 2998
[40] = system: UO-31
[41] = system: EKVX
[42] = system: M14
[43] = system: HCT-15
[44] = system: XF498
[45] = system: SN12C
[46] = system: Malme-3M
[47] = system: LXFL 529
[48] = system: U-251
[49] = system: HOP-18
[50] = system: SNB-78
[51] = system: DMS-114
[52] = system: SK-MEL-28
[53] = system: M19-MEL
[54] = system: NCI-H226
[55] = system: KM12
[56] = system: SR
[57] = system: SF-539
[58] = system: RXF 631
[59] = system: HOP-62

Measured: GI50

CCCc1c(C(=O)OCC)[nH]c(C(=O)CCC(=O)c2[nH]c(C(=O)OCC)c(CCC)c2C(=O)OCC)c1C(=O)OCC
inactive: [1] > 100 µM | [2] > 100 µM | [3] > 100 µM | [4] 48.3 µM | [5] > 100 µM | [6] > 100 µM | [7] > 100 µM | [8] > 100 µM | [9] > 100 µM | [10] 84.5 µM | [11] > 100 µM | [12] > 100 µM | [13] > 100 µM | [14] > 100 µM | [15] > 100 µM | [16] > 100 µM | [17] > 100 µM | [18] 19.1 µM | [19] > 100 µM | [20] 54.6 µM | [21] 70.5 µM | [22] > 100 µM | [23] > 100 µM | [24] > 100 µM | [25] > 100 µM | [26] > 100 µM | [27] > 100 µM | [28] > 100 µM | [29] > 100 µM | [30] > 100 µM | [31] > 100 µM | [32] > 100 µM | [33] 68.5 µM | [34] > 100 µM | [35] > 100 µM | [36] 68.9 µM | [37] > 100 µM | [38] > 100 µM | [39] > 100 µM | [40] > 100 µM | [41] > 100 µM | [42] > 100 µM | [44] 54.3 µM | [45] > 100 µM | [46] > 100 µM | [47] > 100 µM | [48] > 100 µM | [49] > 100 µM | [50] > 100 µM | [51] > 100 µM | [52] > 100 µM | [53] > 100 µM | [54] > 100 µM | [55] > 100 µM | [56] > 100 µM | [57] > 100 µM
> 100 µM: [43]

COc1ccccc1-c1csc(CCC(N)C(=O)O)n1 (stereo not drawn)
inactive: [2] 26.3 µM | [5] > 100 µM | [6] > 100 µM | [8] > 100 µM | [9] > 100 µM | [10] > 100 µM | [11] > 100 µM | [13] > 100 µM | [14] > 100 µM | [15] > 100 µM | [16] > 100 µM | [17] > 100 µM | [58] > 100 µM | [19] > 100 µM | [21] > 100 µM | [22] > 100 µM | [25] > 100 µM | [26] > 100 µM | [27] > 100 µM | [28] > 100 µM | [29] > 100 µM | [30] > 100 µM | [59] > 100 µM | [35] > 100 µM | [37] > 100 µM | [38] > 100 µM | [40] > 100 µM | [41] > 100 µM | [42] > 100 µM | [48] > 100 µM | [50] > 100 µM | [51] > 100 µM | [52] > 100 µM | [53] > 100 µM | [55] > 100 µM | [56] > 100 µM
